Measurements: article PMC10707934, “Design and Synthesis of Novel α-Methylchalcone Derivatives, Anti-Cervical Cancer Activity, and Reversal of Drug Resistance in HeLa/DDP Cells” (Molecules, 2023)

What was measured:
Type in all cases: cell-based, human
SiHa cells = assay: MTT anti-proliferation assay, SiHa; conditions: 48 h, mean ± SD
Experimental: All cell types, at a volume of 200 µL per well, were inoculated in 96-well plates at a density of 2.5 × 10^4 cells / mL and cultured for 24 h in an incubator with 5% CO2 at 37 °C. The old culture medium was replaced with 200 µL of fresh medium per well containing positive compounds, at concentrations of 1, 6.25, 12.5, 25, 50, and 100 μM. After 48 h of culture, 20 µL per well of 5 mg·mL^−1 MTT solution was added. After 4 h of culture, the old solution was discarded, and 150 µL per well of DMSO solution was added. Using an enzyme labeler (Thermo Fisher Scientific, Multiskan GO, Waltham, MA, USA), the plates were shaken for 10 min, OD values were determined at 490 nm, and the inhibition rate was calculated. Non-linear regression fitting of the cell growth rate was carried out using SPSS 23.0, and the IC50 of the compound was calculated. The inhibition rate was calculated using the formula: [(ODempty − ODtest)/(ODempty − ODnegative group)] × 100%, (ODempty blank group absorbance, ODtest absorbance of administration group, ODnegative group without cell culture medium). Each group contained six compound holes, and the experimental results averaged three trials. Complete medium containing only cells was used as the blank control; a complete medium without cells as was used as the negative control; and cisplatin, paclitaxel, and adriamycin were used as the positive controls. The concentration gradient was the same as that used for compounds 3a–3p.

HeLa cells [1] = assay: Cell cycle experiment (PI flow cytometry), HeLa; conditions: 24 h
Experimental: A 2 mL volume of cell fluid per well at a concentration of 1 × 10^6 cells / mL was inoculated into a 6-well plate and cultured for 24 h. After removing the old solution, 2 mL of the cell culture medium containing 3k was added to each well, and each well was exposed for 24 h to a concentration gradient of 2.5, 5, and 10 μM. The experiment was repeated three times for each concentration. Complete culture medium containing only cells was used as the blank control group, and 20 μM cisplatin and chalcone injection were used as the positive control group. After 24 h of treatment, the cells were collected in a 15 mL centrifuge tube and fixed with 75% ethanol at 4 °C for 24 h. A 400 µL volume of PI/RNase staining buffer (BD Biosciences Pharmingen, 550825, 10975 Torreyana Road, San Diego, CA, USA) was uniformly dispersed and subjected to staining for 15 min at room temperature […]. The sample was subsequently filtered and analyzed using up-flow cytometry (BD, LSRFortessa, New York, NY, USA).

HeLa cells [2] = assay: Transwell Matrigel invasion assay, HeLa
Experimental: (§1) The Transwell ([…], Corning Incorporated, New York, NY, USA) was precoated using 50 μL Matrigel for 5 h at 37 °C to achieve solidification. HeLa cells was collected and suspended in a serum-free medium containing varying concentrations (0, 2.5, 5, and 10 μM) of compound 3k, along with 20 μM cisplatin and chalcone. These cell suspensions were then added to the upper wells of a permeabilization chamber at a density of 5 × 10^5 cells/mL. In the lower wells, 600 μL of DMEM containing 10% FBS was added, which had been prepared using 50 μL of Matrigel (diluted 1:8 with serum-free medium from Corning/BD Biosciences). After 24 h of incubation at 37 °C, the invasion cells were fixed using 4% paraformaldehyde and stained using 0.1% crystal violet for 30 min. Then, the chambers were washed using PBS and left to dry. Images were photographed using an inverted fluorescence microscope (Leica Instruments Co., Ltd., Microsystems CMS GmbH, Weizler, Hesse, Germany) and counted using Image J software (V1.8.0.112) for three independent fields randomly.

HeLa/DDP cells [3] = assay: Transwell migration assay, HeLa/DDP; conditions: 24 h, control 497
Experimental: HeLa (5 × 10^4 cells) was suspended in 200 μL of FBS-free medium. The top chamber contained the vehicle and various concentrations of compound 3k (2.5, 5, and 10 μM), cisplatin (20 μM) and chalcone (20 μM). The lower chamber was filled with 600 μL of medium containing 10% FBS. After incubating at 37 °C for 24 h, the cells on the top side of the Transwell membrane were removed with a cotton tip. Cells were fixed and stained with 4% paraformaldehyde (LEAGENE BIOTECHNOLOGY, Cat:DF0135, Lot:0823A23, Zhongguancun, Haidian District, Beijing, China) and 0.1% crystal violet solutions (Leagene Biotechnology, Cat:DZ0055, Lot:0508A23, Zhongguancun, Haidian District, Beijing, China) for 30 min to fix cells trapped on the perforated side of the membrane.
(§2) The experimental methods for the effects of compound 3k, cisplatin, and chalcone on HeLa/DDP cell invasion and migration were the same as in Section 3.3.6.

HeLa/DDP cells [4] = assay: Transwell Matrigel invasion assay, HeLa/DDP; conditions: 24 h, control 399
Experimental: as §1, §2

[5] = system: α-tubulin, β-tubulin in HeLa/DDP cells; assay: Immunofluorescence assay of microtubules, HeLa/DDP; conditions: 24 h, 3k 1, 2, and 4 μM, paclitaxel 2.0 μM
Experimental: The cells were then fixed by adding 400 μL of 4% paraformaldehyde to each well and incubating for 30 min. 0.1% Triton was added at a volume of 400 μL per well and allowed to incubate for 10 min. Following this, goat serum (10%) was added at 400 μL per well and incubated for 40 min. Primary antibodies (α-tubulin, β-tubulin) were then incubated overnight at a temperature of 4 °C. Subsequently, secondary antibodies (α-mouse, β-rabbit) were incubated for 1.5 h. DAPI staining was performed at 400 μL per well for 5 min, followed by a wash with PBS. Cell climbing tablets were removed and inverted onto slides with sealer. Photographs were captured using a fluorescent inverted microscope.

| SMILES | IC50 (SiHa cells) [µM] | percentage of cells in the G0/G1 phase (HeLa cells [1]; 20 μM, control 52.1%) [%] | number of cells undergoing invasion (HeLa cells [2]; 24 h, 20 μM) | number of migrated cells (HeLa/DDP cells [3]; 20 μM) | number of invasion cells (HeLa/DDP cells [4]; 20 μM) | IC50 (SiHa cells; Homo sapiens) [µM] | blocking rate at the G2/M phase (HeLa cells [1]; 2.5 μM) [%] | blocking rate at the G2/M phase (HeLa cells [1]; 5 μM) [%] | blocking rate at the G2/M phase (HeLa cells [1]; 10 μM) [%] | number of cells undergoing invasion compared to the control group (HeLa cells [2]; 24 h, 2.5, 5, and 10 μM) | number of migrated cells (HeLa/DDP cells [3]; 2.5 μM) | number of migrated cells (HeLa/DDP cells [3]; 5 μM) | number of migrated cells (HeLa/DDP cells [3]; 10 μM) | number of invasion cells (HeLa/DDP cells [4]; 2.5 μM) | number of invasion cells (HeLa/DDP cells [4]; 5 μM) | number of invasion cells (HeLa/DDP cells [4]; 10 μM) | microtubule immunofluorescence (α green, β red) [5] |
| --- | --- | --- | --- | --- | --- | --- | --- | --- | --- | --- | --- | --- | --- | --- | --- | --- | --- |
| N.N.[Cl][Pt][Cl] [Cisplatin, cisplatin, reference compound] | 20.7 ± 1.85 | 73.93 | 237 | 395 | 301 |  |  |  |  |  |  |  |  |  |  |  |  |
| COc1ccc(/C=C(\C)C(=O)c2ccc(Cl)c(Cl)c2)cc1OC [Compound 3k, (E)-1-(3,4-Dichlorophenyl)-3-(3,4-dimethoxyphenyl)-2-methylprop-2-en-1-one] |  |  |  |  |  | 14.5 ± 0.98 | 14.04 | 22.84 | 40.18 | significant decrease in the number of cells undergoing invasion | 251 | 179 | 113 | 293 | 237 | 90 | attenuation of the green and red fluorescence of the enclosed cells |
